The source of these data is patent publication US4623645A, “Substituted cephalosporin sulfoxides as anti-inflammatory and antidegenerative agents” (Merck & Co., Inc., priority 1983, dated 1986).

This test deals with T1, Human Polymorphonuclear Leukocyte Elastase (Homo sapiens, UniProt P08246).
T1 sequence (P08246 30-247 limits assumed): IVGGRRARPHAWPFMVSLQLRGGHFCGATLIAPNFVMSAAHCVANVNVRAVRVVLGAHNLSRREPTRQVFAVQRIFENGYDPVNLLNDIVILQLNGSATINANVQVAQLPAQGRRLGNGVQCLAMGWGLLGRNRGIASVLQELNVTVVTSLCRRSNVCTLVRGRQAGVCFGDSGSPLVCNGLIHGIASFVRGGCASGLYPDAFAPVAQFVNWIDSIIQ
Kind of test: Inhibition of human polymorphonuclear leukocyte elastase via hydrolysis of N-t-Boc-alanyl-alanyl-prolyl-alanine-p-nitroanilide (Boc-AAPAN). The format is biochemical. To be noted: 50% inhibition of the enzyme activity 2 minutes after zero time; crude human PMN extract, 0.2 mM Boc-AAPAN, pH 7.5; read-out: ED50 (the source's name) (converted).
With `CO[C@H]1C(=O)N2C(C(=O)OCc3ccccc3)=C(COC(C)=O)C[S+]([O-])[C@H]12` (stereo partly drawn) [OCH3 / OCH2 .phi. / H, Benzyl 3-acetyloxymethyl-7α-methoxy-8-oxo-5-thia-1-azabicyclo[4.2.0]oct-2-ene-2-carboxylate-5-oxide], the IC50 was 7.63 µM.
As for `CC(=O)OCC1=C(C(=O)OC(C)(C)C)N2C(=O)C(Cl)(Cl)C2[S+]([O-])C1` (stereo not shown) [7,7-dichloro / OtBu / H], the figure is 5.02 µM.
For `COC(=O)C1=C(COC(C)=O)C[S+]([O-])C2C(OC)C(=O)N12` (stereo not shown) [OCH3 / OCH3 / H] the value was 25.2 µM; for `CC(=O)OCC1=C(C(=O)OC(C)(C)C)N2C(=O)[C@H](F)[C@H]2[S+]([O-])C1` (stereo partly drawn) [F / OtBu / H, t-Butyl 3-acetyloxymethyl-7α-fluoro-8-oxo-5-thia-1-azabicyclo[4.2.0]oct-2-ene-2-carboxylate-5-oxide], 5.76 µM.
